Source: ChEMBL document CHEMBL5055626 (J Med Chem, 2021)
pIC50: −log10 of the molar value. Where a SMILES comes first, the peptide text is derived from it. Bridges are numbered along the chain shown (N, C = ends).

Tests used:
[1] = target: T1, Neuronal acetylcholine receptor subunit alpha-7 (Rattus norvegicus, UniProt Q05941); test: Antagonist activity at rat alpha7 nAChR expressed in xenopus oocytes assessed as inhibition of Ach- induced response at -100 mV holding potential incubated for 200 secs followed by acetyl choline stimulation by two- electrode voltage-clamp based electrophysiological method; format: cell-based, Oocyte
[2] = Antagonist activity at rat alpha6/ alpha3beta2beta3 nAChR expressed in xenopus oocytes assessed as inhibition of Ach- induced response at -70 mV holding potential preincubated for 5 mins followed by Ach stimulation by voltage-clamp based electrophysiological method; format: cell-based; conditions: Oocyte
[3] = target: Neuronal acetylcholine receptor; alpha3/beta2 (Rattus norvegicus, UniProt P04757+P12390); test: Antagonist activity at rat alpha3beta2 nAChR expressed in xenopus oocytes assessed as inhibition of Ach- induced response at -70 mV holding potential preincubated for 5 mins followed by Ach stimulation by voltage-clamp based electrophysiological method; format: cell-based, Oocyte
[4] = target: T1, Neuronal acetylcholine receptor subunit alpha-7; test: Antagonist activity at rat alpha7 nAChR expressed in xenopus oocytes assessed as inhibition of Ach- induced response at -70 mV holding potential preincubated for 5 mins followed by Ach stimulation by voltage-clamp based electrophysiological method; format: cell-based, Oocyte
[5] = target: T2, Neuronal acetylcholine receptor; alpha3/beta4 (Rattus norvegicus, UniProt P04757+P12392); test: Antagonist activity at rat alpha3beta4 nAChR expressed in xenopus oocytes assessed as inhibition of Ach- induced response at -80 mV holding potential incubated for 200 secs followed by Ach stimulation by voltage-clamp based electrophysiological method; format: cell-based, Oocyte
[6] = target: T1, Neuronal acetylcholine receptor subunit alpha-7; test: Antagonist activity at rat alpha7 nAChR expressed in xenopus oocytes assessed as inhibition of Ach- induced response at -80 mV holding potential incubated for 200 secs followed by Ach stimulation by voltage-clamp based electrophysiological method; format: cell-based, Oocyte
[7] = target: T3, Nicotinic acetylcholine receptor alpha6/alpha3/beta4 (Homo sapiens, UniProt P30926+P32297+Q15825); test: Antagonist activity at rat alpha6/alpha3beta4 nAChR; format: protein-complex assay; conditions: target entry is the homologue from another species
[8] = Antagonist activity at rat alpha6/ alpha3beta2beta3 nAChR
[9] = target: T3, Nicotinic acetylcholine receptor alpha6/alpha3/beta4; test: Antagonist activity at rat alpha6/alpha3beta4 nAChR expressed in xenopus oocytes assessed as inhibition of Ach- induced response at -70 mV holding potential preincubated for 5 mins followed by Ach stimulation by voltage-clamp based electrophysiological method; format: cell-based, Oocyte
[10] = target: T2, Neuronal acetylcholine receptor; alpha3/beta4; test: Antagonist activity at rat alpha3beta4 nAChR; format: protein-complex assay
[11] = target: T2, Neuronal acetylcholine receptor; alpha3/beta4; test: Antagonist activity at rat alpha3beta4 nAChR expressed in xenopus oocytes assessed as inhibition of Ach- induced response at -70 mV holding potential preincubated for 5 mins followed by Ach stimulation by voltage-clamp based electrophysiological method; format: cell-based, Oocyte

T1 sequence (Q05941 whole entry): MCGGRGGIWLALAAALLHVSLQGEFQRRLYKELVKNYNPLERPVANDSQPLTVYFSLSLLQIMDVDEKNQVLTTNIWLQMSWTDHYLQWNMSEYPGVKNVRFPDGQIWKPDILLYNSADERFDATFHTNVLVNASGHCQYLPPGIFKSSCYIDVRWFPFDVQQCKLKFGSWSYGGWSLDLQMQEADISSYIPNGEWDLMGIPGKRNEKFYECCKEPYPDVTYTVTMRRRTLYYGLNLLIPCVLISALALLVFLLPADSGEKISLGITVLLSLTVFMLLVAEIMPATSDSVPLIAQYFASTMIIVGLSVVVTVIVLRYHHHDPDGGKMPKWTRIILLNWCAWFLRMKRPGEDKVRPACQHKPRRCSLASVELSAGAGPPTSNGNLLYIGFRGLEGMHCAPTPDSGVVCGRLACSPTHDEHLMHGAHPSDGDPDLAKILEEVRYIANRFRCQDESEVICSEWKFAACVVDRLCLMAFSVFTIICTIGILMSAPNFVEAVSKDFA
T3 sequence (P30926 whole entry): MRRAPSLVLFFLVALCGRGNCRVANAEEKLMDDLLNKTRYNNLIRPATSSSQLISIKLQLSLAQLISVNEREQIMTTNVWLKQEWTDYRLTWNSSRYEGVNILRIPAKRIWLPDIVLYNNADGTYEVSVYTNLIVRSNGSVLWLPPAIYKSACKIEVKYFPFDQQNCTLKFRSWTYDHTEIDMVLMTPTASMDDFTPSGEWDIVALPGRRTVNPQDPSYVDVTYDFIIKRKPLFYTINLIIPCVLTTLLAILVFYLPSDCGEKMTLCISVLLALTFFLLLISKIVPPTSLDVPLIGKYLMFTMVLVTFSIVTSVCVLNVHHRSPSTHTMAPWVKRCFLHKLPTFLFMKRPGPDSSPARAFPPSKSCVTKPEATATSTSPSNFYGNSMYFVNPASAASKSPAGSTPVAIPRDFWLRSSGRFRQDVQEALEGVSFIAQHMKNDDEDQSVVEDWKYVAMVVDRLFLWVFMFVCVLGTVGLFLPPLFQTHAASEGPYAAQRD
T3 sequence (P32297 whole entry): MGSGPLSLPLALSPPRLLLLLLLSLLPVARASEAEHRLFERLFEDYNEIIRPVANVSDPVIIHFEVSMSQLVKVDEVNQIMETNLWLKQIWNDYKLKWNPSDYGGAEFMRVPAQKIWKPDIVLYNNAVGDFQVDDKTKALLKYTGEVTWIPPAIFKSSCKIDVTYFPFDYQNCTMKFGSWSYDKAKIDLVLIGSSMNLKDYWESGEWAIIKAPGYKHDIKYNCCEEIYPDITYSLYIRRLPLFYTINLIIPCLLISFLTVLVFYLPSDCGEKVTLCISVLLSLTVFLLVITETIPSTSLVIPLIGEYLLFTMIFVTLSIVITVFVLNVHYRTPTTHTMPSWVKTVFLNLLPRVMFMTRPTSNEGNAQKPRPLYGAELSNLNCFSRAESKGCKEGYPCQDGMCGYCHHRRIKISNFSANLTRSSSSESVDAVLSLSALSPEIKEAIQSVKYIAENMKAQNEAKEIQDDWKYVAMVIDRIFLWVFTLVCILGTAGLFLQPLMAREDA
T3 sequence (Q15825 whole entry): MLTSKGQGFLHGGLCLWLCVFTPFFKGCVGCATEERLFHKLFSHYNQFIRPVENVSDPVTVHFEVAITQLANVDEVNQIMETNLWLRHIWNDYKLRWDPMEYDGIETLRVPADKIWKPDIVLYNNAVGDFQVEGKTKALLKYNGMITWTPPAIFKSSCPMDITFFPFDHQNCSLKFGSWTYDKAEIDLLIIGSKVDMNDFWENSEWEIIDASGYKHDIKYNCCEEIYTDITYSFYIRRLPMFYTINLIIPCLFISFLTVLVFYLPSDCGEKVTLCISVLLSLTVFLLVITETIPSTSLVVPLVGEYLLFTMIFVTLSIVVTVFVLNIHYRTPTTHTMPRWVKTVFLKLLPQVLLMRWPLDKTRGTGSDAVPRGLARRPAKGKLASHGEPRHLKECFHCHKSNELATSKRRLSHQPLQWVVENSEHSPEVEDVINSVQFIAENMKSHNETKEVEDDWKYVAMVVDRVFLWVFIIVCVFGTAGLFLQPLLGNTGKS
T2 sequence (P04757 whole entry): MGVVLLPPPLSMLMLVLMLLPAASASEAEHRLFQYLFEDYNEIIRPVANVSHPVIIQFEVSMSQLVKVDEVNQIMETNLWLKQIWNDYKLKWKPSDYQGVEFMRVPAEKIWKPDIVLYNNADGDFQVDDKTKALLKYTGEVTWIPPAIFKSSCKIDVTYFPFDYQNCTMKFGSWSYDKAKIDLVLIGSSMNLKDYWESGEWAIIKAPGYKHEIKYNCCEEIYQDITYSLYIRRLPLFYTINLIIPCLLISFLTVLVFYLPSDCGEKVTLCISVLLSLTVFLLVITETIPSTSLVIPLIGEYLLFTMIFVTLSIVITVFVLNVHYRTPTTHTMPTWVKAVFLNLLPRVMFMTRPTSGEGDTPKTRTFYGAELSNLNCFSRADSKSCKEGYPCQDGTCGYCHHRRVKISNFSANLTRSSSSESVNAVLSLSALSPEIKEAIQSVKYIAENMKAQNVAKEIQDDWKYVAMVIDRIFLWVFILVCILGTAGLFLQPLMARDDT
T2 sequence (P12392 whole entry): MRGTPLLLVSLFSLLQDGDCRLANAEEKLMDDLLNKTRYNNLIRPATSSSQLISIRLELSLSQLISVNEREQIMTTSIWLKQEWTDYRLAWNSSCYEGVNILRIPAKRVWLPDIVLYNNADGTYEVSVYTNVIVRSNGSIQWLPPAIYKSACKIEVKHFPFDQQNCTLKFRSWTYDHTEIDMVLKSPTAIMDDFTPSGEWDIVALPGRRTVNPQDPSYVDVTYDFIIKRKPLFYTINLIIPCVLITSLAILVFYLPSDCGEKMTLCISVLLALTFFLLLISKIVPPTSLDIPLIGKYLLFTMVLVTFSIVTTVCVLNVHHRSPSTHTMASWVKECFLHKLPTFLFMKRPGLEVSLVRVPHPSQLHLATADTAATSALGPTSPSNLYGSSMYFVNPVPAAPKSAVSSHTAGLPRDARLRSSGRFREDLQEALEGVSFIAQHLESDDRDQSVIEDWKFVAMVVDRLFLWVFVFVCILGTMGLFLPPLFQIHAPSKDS
Neuronal acetylcholine receptor; alpha3/beta2, sequence (P04757 whole entry): as the sequence (P04757 whole entry) above
Neuronal acetylcholine receptor; alpha3/beta2, sequence (P12390 whole entry): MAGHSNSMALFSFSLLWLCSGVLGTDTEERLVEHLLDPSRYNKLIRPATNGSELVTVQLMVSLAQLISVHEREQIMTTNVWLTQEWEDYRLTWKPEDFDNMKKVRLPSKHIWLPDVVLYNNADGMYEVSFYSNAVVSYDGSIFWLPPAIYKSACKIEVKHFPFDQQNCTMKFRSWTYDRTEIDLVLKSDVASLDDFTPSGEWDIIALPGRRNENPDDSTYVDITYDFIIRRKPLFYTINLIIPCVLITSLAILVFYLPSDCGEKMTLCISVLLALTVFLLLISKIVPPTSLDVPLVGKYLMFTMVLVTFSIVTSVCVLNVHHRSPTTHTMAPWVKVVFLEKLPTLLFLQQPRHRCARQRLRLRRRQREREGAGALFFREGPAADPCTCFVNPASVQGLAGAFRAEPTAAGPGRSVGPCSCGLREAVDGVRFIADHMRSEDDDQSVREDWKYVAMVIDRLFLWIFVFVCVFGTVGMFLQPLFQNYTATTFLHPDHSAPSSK

## C[C@@H]1NC(=O)[C@@H]2CSSC[C@H](NC(=O)CN)C(=O)N[C@@H](CSSC[C@@H](C(N)=O)NC(=O)[C@H](CCCNC(=N)N)NC(=O)[C@H](Cc3c[nH]c4ccccc34)NC1=O)C(=O)N[C@@H](CO)C(=O)N[C@@H](CC(=O)O)C(=O)N1CCC[C@H]1C(=O)N[C@@H](CCCNC(=N)N)C(=O)N2
[1]
  pIC50: 7.16

## CC(C)[C@@H]1NC(=O)[C@H](Cc2cnc[nH]2)NC(=O)[C@@H]2CCCN2C(=O)[C@H](CC(N)=O)NC(=O)[C@H](CC(N)=O)NC(=O)[C@H](C(C)C)NC(=O)[C@H](CCCNC(=N)N)NC(=O)[C@H]2CSSC[C@H](NC(=O)[C@H](CCC(=O)O)NC(=O)[C@@H](N)CC(=O)O)C(=O)N[C@@H](CSSC[C@@H](C(=O)N[C@@H](CCCNC(=N)N)C(=O)N[C@@H](CCCNC(=N)N)C(=O)N[C@@H](CCCNC(=N)N)C(=O)O)NC1=O)C(=O)N[C@@H](CO)C(=O)N[C@@H](CC(N)=O)C(=O)N1CCC[C@H]1C(=O)N[C@@H](C)C(=O)N2
[2]
  pIC50: 7.22
[3]
  pIC50: 8.22
[4]
  pIC50: 8.70

## C[C@H](N)C(=O)N[C@H]1CSSC[C@@H]2NC(=O)[C@H](CCCNC(=N)N)NC(=O)[C@H](CCCNC(=N)N)NC(=O)[C@H](CC(=O)O)NC(=O)[C@H](CO)NC(=O)[C@H](CSSC[C@H](C(N)=O)NC(=O)[C@H](CCCNC(=N)N)NC(=O)[C@H](Cc3c[nH]c4ccccc34)NC(=O)[C@H](CCCNC(=N)N)NC2=O)NC1=O
[4]
  pIC50: 6.36

## CC(C)[C@@H]1NC(=O)[C@H](Cc2cnc[nH]2)NC(=O)[C@@H]2CCCN2C(=O)[C@H](CC(N)=O)NC(=O)[C@H](CC(N)=O)NC(=O)[C@H](C(C)C)NC(=O)[C@H](CCCNC(=N)N)NC(=O)[C@@H]2CSSC[C@H](NC(=O)[C@H](CCC(=O)O)NC(=O)[C@@H](N)CC(=O)O)C(=O)N[C@@H](CSSC[C@@H](C(=O)N[C@@H](CCCNC(=N)N)C(=O)N[C@@H](CCCNC(=N)N)C(=O)N[C@@H](CCCNC(=N)N)C(=O)O)NC1=O)C(=O)N[C@@H](CO)C(=O)N[C@@H](CC(N)=O)C(=O)N1CCC[C@H]1C(=O)N[C@@H](C)C(=O)N2
[5]
  pIC50: 8.52
[6]
  pIC50: 8.30

## CC(C)C[C@@H]1NC(=O)[C@H](C(C)C)NC(=O)[C@H](C)NC(=O)[C@@H]2CSSC[C@H](NC(=O)CN)C(=O)N[C@@H](CSSC[C@H](C(=O)NCC(=O)O)NC(=O)[C@H](Cc3ccc(O)cc3)NC1=O)C(=O)N[C@@H](CO)C(=O)N[C@@H]([C@@H](C)O)C(=O)N1CC(O)C[C@H]1C(=O)N1CCC[C@H]1C(=O)N2 (stereo partly specified)
[7]
  pIC50: 7.92
[8]
  pIC50: 5.89

## CC(C)C[C@@H]1NC(=O)[C@H](C(C)C)NC(=O)[C@H](C)NC(=O)[C@@H]2CSSC[C@H](NC(=O)CN)C(=O)N[C@@H](CSSC[C@H](C(=O)NCC(=O)O)NC(=O)[C@H](Cc3ccc(O)cc3)NC1=O)C(=O)N[C@@H](CO)C(=O)N[C@@H]([C@@H](C)O)C(=O)N1CCC[C@H]1C(=O)N1CCC[C@H]1C(=O)N2
[2]
  pIC50: 9.59
[3]
  pIC50: 8.24
[9]
  pIC50: 8.82
[10]
  pIC50: 7.42

## CC(C)C[C@@H]1NC(=O)[C@H](C(C)C)NC(=O)[C@H](C)NC(=O)[C@@H]2CSSC[C@H](NC(=O)CN)C(=O)N[C@@H](CSSC[C@H](C(=O)NCC(=O)O)NC(=O)[C@H](Cc3ccc(O)cc3)NC1=O)C(=O)N[C@@H](CO)C(=O)N[C@@H](C)C(=O)N1CC(O)C[C@H]1C(=O)N1CCC[C@H]1C(=O)N2 (stereo partly specified)
[9]
  pIC50: 7.24
[11]
  pIC50: 5.92

## CC[C@H](C)[C@@H]1NC(=O)[C@H](Cc2cnc[nH]2)NC(=O)[C@@H]2CCCN2C(=O)[C@H](CC(N)=O)NC(=O)[C@H](CC(N)=O)NC(=O)[C@H](C(C)C)NC(=O)[C@H](CC(N)=O)NC(=O)[C@@H]2CSSC[C@H](NC(=O)CN)C(=O)N[C@@H](CSSC[C@@H](C(=O)NCC(N)=O)NC1=O)C(=O)N[C@@H](CO)C(=O)N[C@@H](Cc1cnc[nH]1)C(=O)N1CCC[C@H]1C(=O)N[C@@H](C)C(=O)N2 (H-GCCSHPACNVNNPHICG-NH2; disulfide 2-8, 3-16)
[4]
  pIC50: 7.57
